Results taken from ChEMBL document CHEMBL5370592, “Synthesis and Structure-Activity Relationships of a New Class of Oxadiazoles Targeting DprE1 as Antitubercular Agents” (ACS Med Chem Lett, 2023).
Converted amounts (≈) assume the structure as drawn.

Tests used:
Format in all cases: functional
[1] = system: Mycobacterium tuberculosis; assay: Antitubercular activity against extensively drug-resistant Mycobacterium tuberculosis 028K111 assessed as inhibition of bacterial growth incubated for 2 weeks; settings: 028K111, 336 h
[2] = system: Mycobacterium tuberculosis; assay: Antitubercular activity against isonizaid/rifampicin/rifabutin-resistant Mycobacterium tuberculosis NIHA37 assessed as inhibition of bacterial growth incubated for 2 weeks; settings: NIHA37, 336 h
[3] = system: Mycobacterium tuberculosis; assay: Antitubercular activity against ethionamide-resistant Mycobacterium tuberculosis NIH_G145 assessed as inhibition of bacterial growth incubated for 2 weeks; settings: NIH_G145, 336 h
[4] = system: Mycobacterium tuberculosis; assay: Antitubercular activity against isonizaid/rifampicin/ethambutol/rifabutin-resistant Mycobacterium tuberculosis NIH_G269DR assessed as inhibition of bacterial growth incubated for 2 weeks; settings: 336 h
[5] = system: Mycobacterium tuberculosis; assay: Antitubercular activity against isoniazid/rifampicin/streptomycin-resistant Mycobacterium tuberculosis clinical strain 01291696 assessed as inhibition of bacterial growth incubated for 2 weeks; settings: Mycobacterium tuberculosis, 01291696, 336 h
[6] = system: Mycobacterium tuberculosis; assay: Antitubercular activity against isoniazid/rifampicin/pyrazinamide/prothionamide/rifabutin/ofloxacin/moxifloxacin/levofloxacin-resistant Mycobacterium tuberculosis NIHB188 assessed as inhibition of bacterial growth incubated for 2 weeks; settings: NIHB188, 336 h
[7] = system: Mycobacterium tuberculosis; assay: Antitubercular activity against isonizaid/rifampicin/ethionamide/prothionamide-resistant Mycobacterium tuberculosis NIHA48 assessed as inhibition of bacterial growth incubated for 2 weeks; settings: NIHA48, 336 h
[8] = system: Mycobacterium tuberculosis; assay: Antitubercular activity against isoniazid/rifampicin/ethambutol/pyrazinamid/rifabutin/prothionamide-resistant Mycobacterium tuberculosis K25b00MR assessed as inhibition of bacterial growth incubated for 2 weeks; settings: 336 h
[9] = system: Mycobacterium tuberculosis; assay: Antitubercular activity against extensively drug-resistant Mycobacterium tuberculosis NIH1B250 assessed as inhibition of bacterial growth incubated for 2 weeks; settings: NIH1B250, 336 h
[10] = system: Mycobacterium tuberculosis; assay: Antitubercular activity against isoniazid/rifampicin/streptomycin/para-aminosalicylic acid/ofloxacin-resistant Mycobacterium tuberculosis K29b00MR assessed as inhibition of bacterial growth incubated for 2 weeks; settings: 336 h
[11] = system: Mycobacterium tuberculosis; assay: Antitubercular activity against isoniazid/rifampicin/ethambutol/pyrazinamide/streptomycin/kanamycin-resistant Mycobacterium tuberculosis K20b00MR assessed as inhibition of bacterial growth incubated for 2 weeks; settings: 336 h
[12] = system: Mycobacterium tuberculosis; assay: Antitubercular activity against streptomycin/D-cycloserine-resistant Mycobacterium tuberculosis NIH_G169 assessed as inhibition of bacterial growth incubated for 2 weeks; settings: NIH_G169, 336 h
[13] = system: Mycobacterium tuberculosis; assay: Antitubercular activity against isoniazid/rifampicin/ethambutol/rifabutin-resistant Mycobacterium tuberculosis K22b00MR assessed as inhibition of bacterial growth incubated for 2 weeks; settings: 336 h
[14] = system: Mycobacterium tuberculosis; assay: Antitubercular activity against isoniazid/rifampicin/ethambutol/streptomycin-resistant Mycobacterium tuberculosis K21b00MR assessed as inhibition of bacterial growth incubated for 2 weeks; settings: 336 h
[15] = system: Mycobacterium tuberculosis; assay: Antitubercular activity against isoniazid/ethambutol/prothionamide/D-cycloserine/ofloxacin/levofloxacin/pyrazinamide-resistant Mycobacterium tuberculosis NIH1B314 assessed as inhibition of bacterial growth incubated for 2 weeks; settings: NIH1B314, 336 h
[16] = system: Mycobacterium tuberculosis; assay: Antitubercular activity against isoniazid/rifampicin/moxifloxacin-resistant Mycobacterium tuberculosis NIH_G367DR assessed as inhibition of bacterial growth incubated for 2 weeks; settings: 336 h
[17] = system: Mycobacterium tuberculosis; assay: Antitubercular activity against isoniazid/rifampicin/ethambutol/rifabutin-resistant Mycobacterium tuberculosis K18b01MR assessed as inhibition of bacterial growth incubated for 2 weeks; settings: 336 h
[18] = system: Mycobacterium tuberculosis; assay: Antitubercular activity against isoniazid/rifampicin/ethambutol/pyrazinamide/rifabutin/prothionamide-resistant Mycobacterium tuberculosis NIHB302 assessed as inhibition of bacterial growth incubated for 2 weeks; settings: NIHB302, 336 h
[19] = system: Mycobacterium tuberculosis; assay: Antitubercular activity against isoniazid/rifampicin/para-aminosalicylic acid/ofloxacin/prothionamide-resistant Mycobacterium tuberculosis NIHB67 assessed as inhibition of bacterial growth incubated for 2 weeks; settings: NIHB67, 336 h
[20] = system: Mycobacterium tuberculosis; assay: Antitubercular activity against isonizaid/rifampicin/ethambutol/rifabutin/D-cycloserine-resistant Mycobacterium tuberculosis NIH_G21R assessed as inhibition of bacterial growth incubated for 2 weeks; settings: 336 h
[21] = system: Mycobacterium tuberculosis; assay: Antitubercular activity against isoniazid/rifampicin/ethambutol/pyrazinamide/streptomycin/kanamycin/para-aminosalicylic acid/prothionamide-resistant Mycobacterium tuberculosis K33b00MR assessed as inhibition of bacterial growth incubated for 2 weeks; settings: 336 h
[22] = system: Mycobacterium tuberculosis; assay: Antitubercular activity against isoniazid/prothionamide-resistant Mycobacterium tuberculosis NIHA38 assessed as inhibition of bacterial growth incubated for 2 weeks; settings: NIHA38, 336 h
[23] = system: Mycobacterium tuberculosis; assay: Antitubercular activity against extensively drug-resistant Mycobacterium tuberculosis clinical strain 00202293 assessed as inhibition of bacterial growth incubated for 2 weeks; settings: Mycobacterium tuberculosis, 00202293, 336 h
[24] = system: Mycobacterium tuberculosis; assay: Antitubercular activity against isoniazid/rifampicin/ethambutol/para-aminosalicylic acid/kanamycin/ofloxacin/prothionamide-resistant Mycobacterium tuberculosis Kb019 assessed as inhibition of bacterial growth incubated for 2 weeks; settings: Kb019, 336 h
[25] = system: Mycobacterium tuberculosis; assay: Antitubercular activity against isoniazid/rifampicin/ethambutol/pyrazinamid/rifabutin-resistant Mycobacterium tuberculosis K26b00MR assessed as inhibition of bacterial growth incubated for 2 weeks; settings: 336 h
[26] = system: Mycobacterium tuberculosis; assay: Antitubercular activity against isoniazid/prothionamide-resistant Mycobacterium tuberculosis NIHB140 assessed as inhibition of bacterial growth incubated for 2 weeks; settings: NIHB140, 336 h
[27] = system: Mycobacterium tuberculosis; assay: Antitubercular activity against extensively drug-resistant Mycobacterium tuberculosis clinical strain X37b00XR assessed as inhibition of bacterial growth incubated for 2 weeks; settings: 336 h
[28] = system: Mycobacterium tuberculosis; assay: Antitubercular activity against ethambutol/D-cycloserine-resistant Mycobacterium tuberculosis NIH_G11R assessed as inhibition of bacterial growth incubated for 2 weeks; settings: 336 h
[29] = system: Mycobacterium tuberculosis; assay: Antitubercular activity against isoniazid/rifampicin/kanamycin/pyrazinamide/capreomycin/amikacin/prothionamide/D-cycloserine-resistant Mycobacterium tuberculosis K32b00MR assessed as inhibition of bacterial growth incubated for 2 weeks; settings: 336 h
[30] = system: Mycobacterium tuberculosis; assay: Antitubercular activity against isoniazid/ofloxacin/prothionamide-resistant Mycobacterium tuberculosis NIH1B127 assessed as inhibition of bacterial growth incubated for 2 weeks; settings: NIH1B127, 336 h
[31] = system: Mycobacterium tuberculosis; assay: Antitubercular activity against isoniazid/rifampicin/para-aminosalicylic acid/pyrazinamide/prothionamide/rifabutin-resistant Mycobacterium tuberculosis NIHB68 assessed as inhibition of bacterial growth incubated for 2 weeks; settings: NIHB68, 336 h
[32] = system: Mycobacterium tuberculosis; assay: Antitubercular activity against extensively drug-resistant Mycobacterium tuberculosis NIH1B178 assessed as inhibition of bacterial growth incubated for 2 weeks; settings: NIH1B178, 336 h
[33] = system: Mycobacterium tuberculosis; assay: Antitubercular activity against isoniazid/rifampicin/ethambutol/rifabutin-resistant Mycobacterium tuberculosis NIH_G10R assessed as inhibition of bacterial growth incubated for 2 weeks; settings: 336 h
[34] = system: Mycobacterium tuberculosis; assay: Antitubercular activity against isonizaid/rifampicin/ethambutol/rifabutin-resistant Mycobacterium tuberculosis NIH_G22R assessed as inhibition of bacterial growth incubated for 2 weeks; settings: 336 h
[35] = system: Mycobacterium tuberculosis; assay: Antitubercular activity against extensively drug-resistant Mycobacterium tuberculosis NIHB13 assessed as inhibition of bacterial growth incubated for 2 weeks; settings: NIHB13, 336 h
[36] = system: Mycobacterium tuberculosis; assay: Antitubercular activity against isoniazid/rifampicin/ethambutol/streptomycin/D-cycloserine/rifabutin-resistant Mycobacterium tuberculosis NIH_G19R assessed as inhibition of bacterial growth incubated for 2 weeks; settings: 336 h
[37] = system: Mycobacterium tuberculosis; assay: Antitubercular activity against isoniazid/rifampicin/moxifloxacin-resistant Mycobacterium tuberculosis NIH_G76MR assessed as inhibition of bacterial growth incubated for 2 weeks; settings: 336 h
[38] = system: Mycobacterium tuberculosis; assay: Antitubercular activity against isoniazid/ethionamide/D-cycloserine-resistant Mycobacterium tuberculosis NIH_G17R assessed as inhibition of bacterial growth incubated for 2 weeks; settings: 336 h
[39] = system: Mycobacterium tuberculosis; assay: Antitubercular activity against extensively drug-resistant Mycobacterium tuberculosis 026K111 assessed as inhibition of bacterial growth incubated for 2 weeks; settings: 026K111, 336 h
[40] = system: Mycobacterium tuberculosis; assay: Antitubercular activity against rifampicin/isoniazid/streptomycin/prothionamide-resistant Mycobacterium tuberculosis NIHB43 assessed as inhibition of bacterial growth incubated for 2 weeks; settings: NIHB43, 336 h
[41] = system: Mycobacterium tuberculosis; assay: Antitubercular activity against isoniazid/ethionamide-resistant Mycobacterium tuberculosis NIH1B21 assessed as inhibition of bacterial growth incubated for 2 weeks; settings: NIH1B21, 336 h
[42] = system: Mycobacterium tuberculosis; assay: Antitubercular activity against isoniazid/rifampicin/ethambutol/pyrazinamide/prothionamide/ofloxacin/levofloxacin/rifabutin-resistant Mycobacterium tuberculosis NIHB270 assessed as inhibition of bacterial growth incubated for 2 weeks; settings: NIHB270, 336 h
[43] = system: Mycobacterium tuberculosis; assay: Antitubercular activity against isonizaid/rifampicin/streptomycin/ethionamide-resistant Mycobacterium tuberculosis NIH_G79 assessed as inhibition of bacterial growth incubated for 2 weeks; settings: NIH_G79, 336 h

Structure (SMILES): COc1nc2ccc(Br)cc2cc1[C@@H](c1ccccc1)[C@@](O)(CCN(C)C)c1cccc2ccccc12 [BEDAQUILINE]
- MIC [1]: 0.15 µM (≈ 0.0833 µg/mL)
- MIC [2]: 0.05 µM (≈ 0.0278 µg/mL)
- MIC [3]: 0.2 µM (≈ 0.111 µg/mL)
- MIC [4]: 0.1 µM (≈ 0.0556 µg/mL)
- MIC [5]: 0.05 µM (≈ 0.0278 µg/mL)
- MIC [6]: 0.04 µM (≈ 0.0222 µg/mL)
- MIC [7]: 0.1 µM (≈ 0.0556 µg/mL)
- MIC [8]: 0.1 µM (≈ 0.0556 µg/mL)
- MIC [9]: 0.07 µM (≈ 0.0389 µg/mL)
- MIC [10]: 0.2 µM (≈ 0.111 µg/mL)
- MIC [11]: < 0.02 µM
- MIC [12]: 0.15 µM (≈ 0.0833 µg/mL)
- MIC [13]: 0.15 µM (≈ 0.0833 µg/mL)
- MIC [14]: 0.07 µM (≈ 0.0389 µg/mL)
- MIC [15]: < 0.02 µM
- MIC [16]: < 0.02 µM
- MIC [17]: 0.04 µM (≈ 0.0222 µg/mL)
- MIC [18]: 0.04 µM (≈ 0.0222 µg/mL)
- MIC [19]: 0.3 µM (≈ 0.167 µg/mL)
- MIC [20]: 0.02 µM (≈ 0.0111 µg/mL)
- MIC [21]: 0.07 µM (≈ 0.0389 µg/mL)
- MIC [22]: 0.05 µM (≈ 0.0278 µg/mL)
- MIC [23]: 0.02 µM (≈ 0.0111 µg/mL)
- MIC [24]: 0.07 µM (≈ 0.0389 µg/mL)
- MIC [25]: 0.1 µM (≈ 0.0556 µg/mL)
- MIC [26]: 0.05 µM (≈ 0.0278 µg/mL)
- MIC [27]: 0.1 µM (≈ 0.0556 µg/mL)
- MIC [28]: 0.15 µM (≈ 0.0833 µg/mL)
- MIC [29]: 0.1 µM (≈ 0.0556 µg/mL)
- MIC [30]: 0.1 µM (≈ 0.0556 µg/mL)
- MIC [31]: 0.1 µM (≈ 0.0556 µg/mL)
- MIC [32]: 0.05 µM (≈ 0.0278 µg/mL)
- MIC [33]: 0.1 µM (≈ 0.0556 µg/mL)
- MIC [34]: 0.1 µM (≈ 0.0556 µg/mL)
- MIC [35]: 0.05 µM (≈ 0.0278 µg/mL)
- MIC [36]: 0.1 µM (≈ 0.0556 µg/mL)
- MIC [37]: < 0.02 µM
- MIC [38]: 0.1 µM (≈ 0.0556 µg/mL)
- MIC [39]: 0.2 µM (≈ 0.111 µg/mL)
- MIC [40]: 0.05 µM (≈ 0.0278 µg/mL)
- MIC [41]: 0.07 µM (≈ 0.0389 µg/mL)
- MIC [42]: 0.07 µM (≈ 0.0389 µg/mL)
- MIC [43]: 0.07 µM (≈ 0.0389 µg/mL)
